In ChEMBL document CHEMBL5528054, “Novel Cocrystal Structures of Peptide Antagonists Bound to the Human Melanocortin Receptor 4 Unveil Unexplored Grounds for Structure-Based Drug Design” (J Med Chem, 2024):
pIC50: −log10 of the molar value.

Experiments:
[1] = target: T1, Melanocyte-stimulating hormone receptor (Homo sapiens, UniProt Q01726); assay: Partial agonist activity at C-terminal HA-tagged human MC1-R stably expressed in HEK293 cells co-expressing GScAMP22P cAMP reporter assessed as inhibition of alpha-MSH induced cAMP production by cell based luminescence assay; type: functional
Target sequence in this assay (Q01726 whole entry): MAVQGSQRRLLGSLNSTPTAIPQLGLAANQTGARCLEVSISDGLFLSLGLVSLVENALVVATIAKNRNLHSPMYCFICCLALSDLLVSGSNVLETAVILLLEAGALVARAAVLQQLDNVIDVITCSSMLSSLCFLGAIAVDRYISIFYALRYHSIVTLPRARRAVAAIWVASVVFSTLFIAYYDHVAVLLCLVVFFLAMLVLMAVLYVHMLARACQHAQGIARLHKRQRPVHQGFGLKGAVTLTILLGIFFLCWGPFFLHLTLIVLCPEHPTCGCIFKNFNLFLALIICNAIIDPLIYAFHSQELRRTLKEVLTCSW

[2] = target: T1, Melanocyte-stimulating hormone receptor; assay: Partial agonist activity at C-terminal HA-tagged human MC1-R stably expressed in HEK293 cells co-expressing GScAMP22P cAMP reporter assessed as inhibition of alpha-MSH induced cAMP production by cell based luminescence assay relative to control; type: functional; parameters: concentration or dose not given beside the values; settings: filed as partial agonist, concentration not given here
Target sequence in this assay (Q01726 whole entry, looked up): as the sequence (Q01726 whole entry) above

[3] = target: Melanocortin receptor 4 (Homo sapiens, UniProt P32245); assay: Antagonist activity at C-terminal HA-tagged human MC4-R stably expressed in HEK293 cells co-expressing GScAMP22P cAMP reporter assessed as inhibition of alpha-MSH induced cAMP production by cell based luminescence assay; type: functional; settings: for pIC50: read-out: IC50
Sequence of Melanocortin receptor 4 (P32245 whole entry): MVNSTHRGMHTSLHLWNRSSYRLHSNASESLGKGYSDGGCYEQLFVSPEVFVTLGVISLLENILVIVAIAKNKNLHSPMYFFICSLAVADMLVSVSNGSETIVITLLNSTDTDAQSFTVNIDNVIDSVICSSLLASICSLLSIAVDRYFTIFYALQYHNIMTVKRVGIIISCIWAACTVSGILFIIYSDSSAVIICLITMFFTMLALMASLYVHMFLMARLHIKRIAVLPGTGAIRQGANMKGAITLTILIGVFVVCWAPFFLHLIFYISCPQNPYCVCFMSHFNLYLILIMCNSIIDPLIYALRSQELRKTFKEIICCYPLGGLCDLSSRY

[4] = target: Melanocortin receptor 3 (Homo sapiens, UniProt P41968); assay: Antagonist activity at C-terminal HA-tagged human MC3-R stably expressed in HEK293 cells co-expressing GScAMP22P cAMP reporter assessed as inhibition of alpha-MSH induced cAMP production by cell based luminescence assay; type: functional; settings: read-out: IC50
Sequence of Melanocortin receptor 3 (P41968 whole entry): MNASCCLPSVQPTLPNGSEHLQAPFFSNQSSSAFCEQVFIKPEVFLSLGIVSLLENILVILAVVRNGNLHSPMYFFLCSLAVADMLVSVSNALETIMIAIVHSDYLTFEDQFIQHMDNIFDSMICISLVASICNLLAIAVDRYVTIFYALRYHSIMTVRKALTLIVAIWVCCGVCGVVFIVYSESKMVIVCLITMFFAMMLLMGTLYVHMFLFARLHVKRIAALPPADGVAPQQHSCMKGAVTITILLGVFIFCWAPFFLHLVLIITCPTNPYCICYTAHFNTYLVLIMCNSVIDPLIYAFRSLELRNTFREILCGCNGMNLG

[5] = tested on: HEK293; assay: (§1) Selectivity ratio of IC50 for C-terminal HA-tagged human MC4-R stably expressed in HEK293 cells co-expressing GScAMP22P cAMP reporter assessed as inhibition of alpha-MSH induced cAMP production to IC50 for C-terminal HA-tagged human MC1-R stably expressed in HEK293 cells co-expressing GScAMP22P cAMP reporter assessed as inhibition of alpha-MSH induced cAMP production; type: cell-based
[6] = tested on: HEK293; assay: as §1, with “MC3-R” for “MC1-R”; type: cell-based

| Structure (SMILES) | pIC50 [1] | inhibition [2] [%] | other results |
| --- | --- | --- | --- |
| CCCC[C@H](NC(C)=O)C(=O)N[C@H]1CC(=O)NCCCC[C@@H](C(N)=O)NC(=O)[C@H](CCCCN)NC(=O)[C@H](Cc2c[nH]c3ccccc23)NC(=O)[C@H](CCCNC(=N)N)NC(=O)[C@@H](Cc2ccc3ccccc3c2)NC(=O)[C@@H]2CCCN2C1=O | 6.80 | 81.6 | – |
| CCCCC(NC(C)=O)C(=O)N[C@H]1CC(=O)NCCCC[C@@H](C(N)=O)NC(=O)CNC(=O)[C@H](Cc2c[nH]c3ccccc23)NC(=O)[C@H](CCCNC(=N)N)NC(=O)[C@@H](Cc2ccc3ccccc3c2)NC(=O)[C@@H]2C[C@@H](n3cc(-c4ccccn4)nn3)CN2C1=O (stereo partly specified) | – | 88.4 | Ratio IC50 [5]: 53; Ratio IC50 [6]: 1.6 |
| CCCCC(NC(C)=O)C(=O)N[C@H]1CC(=O)NCCCC[C@@H](C(N)=O)NC(=O)CNC(=O)[C@H](Cc2c[nH]c3ccccc23)NC(=O)[C@H](CCCNC(=N)N)NC(=O)[C@@H](Cc2ccc3ccccc3c2)NC(=O)[C@@H]2C[C@@H](n3cc(CCCNC(=N)N)nn3)CN2C1=O (stereo partly specified) | – | 84.7 | Ratio IC50 [5]: 0.1; Ratio IC50 [6]: 5.8 |
| CCCC[C@H](NC(C)=O)C(=O)N[C@H]1CC(=O)NCCCC[C@@H](C(N)=O)NC(=O)[C@H](Cc2c[nH]c3ccccc23)NC(=O)[C@H](CCCNC(=N)N)NC(=O)[C@@H](Cc2ccc3ccccc3c2)NC(=O)[C@H](Cc2c[nH]cn2)NC1=O | – | 76 | – |
| CC(=O)N[C@H](CCCNC(=N)N)C(=O)N[C@H]1CC(=O)NCCCC[C@@H](C(N)=O)NC(=O)[C@H](CCCNC(=N)N)NC(=O)[C@H](Cc2c[nH]c3ccccc23)NC(=O)[C@H](CCCNC(=N)N)NC(=O)[C@@H](Cc2ccc3ccccc3c2)NC(=O)[C@@H]2CCCN2C1=O | 5.91 | 94.6 | – |
| CCCC[C@H](NC(C)=O)C(=O)N[C@H]1CC(=O)NCCCC[C@@H](C(N)=O)NC(=O)[C@H](Cc2ccc(NC(=N)N)cc2)NC(=O)[C@H](Cc2c[nH]c3ccccc23)NC(=O)[C@H](CCCNC(=N)N)NC(=O)[C@@H](Cc2ccc3ccccc3c2)NC(=O)[C@@H]2CCCN2C1=O | 7.05 | 88.6 | – |
| CCCC[C@H](NC(C)=O)C(=O)N[C@H]1CC(=O)NCCCC[C@@H](C(N)=O)NC(=O)CNC(=O)[C@H](Cc2c[nH]c3ccccc23)NC(=O)[C@H](CCCNC(=N)N)NC(=O)[C@@H](Cc2ccc3ccccc3c2)NC(=O)[C@@H]2C[C@@H](n3cc(-c4ccccn4)nn3)CN2C1=O | – | – | pIC50 ([3]; hek293): 8.40; pIC50 ([4]; hek293): 8.20; pIC50 ([1]; hek293): 6.67 |
| CCCC[C@H](NC(C)=O)C(=O)N[C@H]1CC(=O)NCCCC[C@@H](C(N)=O)NC(=O)[C@H](CCCCNC(=N)NCc2ccccc2)NC(=O)[C@H](Cc2c[nH]c3ccccc23)NC(=O)[C@H](CCCNC(=N)N)NC(=O)[C@@H](Cc2ccc3ccccc3c2)NC(=O)[C@@H]2CCCN2C1=O | 7.04 | 89.6 | – |
| CC(=O)N[C@H](CCCN)C(=O)N[C@H]1CC(=O)NCCCC[C@@H](C(N)=O)NC(=O)[C@H](CCCNC(=N)N)NC(=O)[C@H](Cc2c[nH]c3ccccc23)NC(=O)[C@H](CCCNC(=N)N)NC(=O)[C@@H](Cc2ccc3ccccc3c2)NC(=O)[C@@H]2CCCN2C1=O | 5.51 | 73.7 | – |
| CCCC[C@H](NC(C)=O)C(=O)N[C@H]1CC(=O)NCCCC[C@@H](C(N)=O)NC(=O)[C@H](CCCN)NC(=O)[C@H](Cc2c[nH]c3ccccc23)NC(=O)[C@H](CCCNC(=N)N)NC(=O)[C@@H](Cc2ccc3ccccc3c2)NC(=O)[C@@H]2CCCN2C1=O | 6.44 | 83.8 | – |
| CCCC[C@H](NC(C)=O)C(=O)N[C@H]1CC(=O)NCCCC[C@@H](C(N)=O)NC(=O)[C@H](CCCCNC(=N)N(CCC)CCC)NC(=O)[C@H](Cc2c[nH]c3ccccc23)NC(=O)[C@H](CCCNC(=N)N)NC(=O)[C@@H](Cc2ccc3ccccc3c2)NC(=O)[C@@H]2CCCN2C1=O | 6.76 | 88.7 | – |
| CCCC[C@H](NC(C)=O)C(=O)N[C@H]1CC(=O)NCCCC[C@@H](C(N)=O)NC(=O)[C@H](CCCCNC(=N)NCCC(=O)O)NC(=O)[C@H](Cc2c[nH]c3ccccc23)NC(=O)[C@H](CCCNC(=N)N)NC(=O)[C@@H](Cc2ccc3ccccc3c2)NC(=O)[C@@H]2CCCN2C1=O | 6.22 | 83.2 | – |
| CCCC[C@H](NC(C)=O)C(=O)N[C@H]1CC(=O)NCCCC[C@@H](C(N)=O)NC(=O)CNC(=O)[C@H](Cc2c[nH]c3ccccc23)NC(=O)[C@H](CCCNC(=N)N)NC(=O)[C@@H](Cc2ccc3ccccc3c2)NC(=O)[C@@H]2C[C@@H](n3cc(C(C)(C)N)nn3)CN2C1=O | – | – | pIC50 ([3]; hek293): 8.36; pIC50 ([4]; hek293): 7.14; pIC50 ([1]; hek293): 8.82 |
| CCCC[C@H](NC(C)=O)C(=O)N[C@H]1CC(=O)NCCCC[C@@H](C(N)=O)NC(=O)[C@H](CCCNC(N)=O)NC(=O)[C@H](Cc2c[nH]c3ccccc23)NC(=O)[C@H](CCCNC(=N)N)NC(=O)[C@@H](Cc2ccc3ccccc3c2)NC(=O)[C@@H]2CCCN2C1=O | 6.24 | 91.2 | – |
| CCCC[C@H](NC(C)=O)C(=O)N[C@H]1CC(=O)NCCCC[C@@H](C(N)=O)NC(=O)[C@H](CCCCNC(=N)N)NC(=O)[C@H](Cc2c[nH]c3ccccc23)NC(=O)[C@H](CCCNC(=N)N)NC(=O)[C@@H](Cc2ccc3ccccc3c2)NC(=O)[C@@H]2CCCN2C1=O | 6.09 | 90.6 | – |
| CCCC[C@H](NC(C)=O)C(=O)N[C@H]1CC(=O)NCCCC[C@@H](C(N)=O)NC(=O)CNC(=O)[C@H](Cc2c[nH]c3ccccc23)NC(=O)[C@H](CCCNC(=N)N)NC(=O)[C@@H](Cc2ccc3ccccc3c2)NC(=O)[C@@H]2C[C@@H](n3cc(CCCNC(=N)N)nn3)CN2C1=O | – | – | pIC50 ([3]; hek293): 8.49; pIC50 ([4]; hek293): 7.73; pIC50 ([1]; hek293): 9.31 |

More lines, main results first:

| pIC50 [1] | inhibition [2] [%] | Structure (SMILES) | other results |
| --- | --- | --- | --- |
| 9.92 | 78.6 | CCCC[C@H](NC(C)=O)C(=O)N[C@H]1CC(=O)NCCCC[C@@H](C(N)=O)NC(=O)CNC(=O)[C@H](Cc2c[nH]c3ccccc23)NC(=O)[C@H](CCCNC(=N)N)NC(=O)[C@@H](Cc2ccc3ccccc3c2)NC(=O)[C@@H]2C[C@H](NC(=O)CCNC(=N)N)CN2C1=O | – |
| 7.87 | 90.1 | CCCC[C@H](NC(C)=O)C(=O)N[C@H]1CC(=O)NCCCC[C@@H](C(N)=O)NC(=O)CNC(=O)[C@H](Cc2c[nH]c3ccccc23)NC(=O)[C@H](CCCNC(=N)N)NC(=O)[C@@H](Cc2ccc3ccccc3c2)NC(=O)[C@@H]2C[C@H](NC(=O)Cc3ccccc3)CN2C1=O | – |
| 7.98 | 93.7 | CCCC[C@H](NC(C)=O)C(=O)N[C@H]1CC(=O)NCCCC[C@@H](C(N)=O)NC(=O)CNC(=O)[C@H](Cc2c[nH]c3ccccc23)NC(=O)[C@H](CCCNC(=N)N)NC(=O)[C@@H](Cc2ccc3ccccc3c2)NC(=O)[C@@H]2C[C@H](NC(=O)CC3CCCCC3)CN2C1=O | pIC50 [3]: 8.16; IC50 ([3]; read-out: pIC50 (converted)): 5.89 nM; pIC50 [4]: 8.03; Ratio IC50 [5]: 1.8; Ratio IC50 [6]: 1.6 |
| 7.11 | 89.5 | CCCC[C@H](NC(C)=O)C(=O)N[C@H]1CC(=O)NCCCC[C@@H](C(N)=O)NC(=O)CNC(=O)[C@H](Cc2c[nH]c3ccccc23)NC(=O)[C@H](CCCNC(=N)N)NC(=O)[C@@H](Cc2ccc3ccccc3c2)NC(=O)[C@@H]2C[C@H](n3cc(C4CCCCC4)nn3)CN2C1=O | pIC50 [4]: 7.25 |
| 8.29 | 85.9 | CCCC[C@H](NC(C)=O)C(=O)N[C@H]1CC(=O)NCCCC[C@@H](C(N)=O)NC(=O)CNC(=O)[C@H](Cc2c[nH]c3ccccc23)NC(=O)[C@H](CCCNC(=N)N)NC(=O)[C@@H](Cc2ccc3ccccc3c2)NC(=O)[C@@H]2C[C@H](n3cc(CCNC(=N)N)nn3)CN2C1=O | – |
| 7.65 | 90.9 | CCCC[C@H](NC(C)=O)C(=O)N[C@H]1CC(=O)NCCCC[C@@H](C(N)=O)NC(=O)CNC(=O)[C@H](Cc2c[nH]c3ccccc23)NC(=O)[C@H](CCCNC(=N)N)NC(=O)[C@@H](Cc2ccc3ccccc3c2)NC(=O)[C@@H]2C[C@H](NC(=O)c3ccccc3)CN2C1=O | – |
| 8.00 | – | CCCCCC(=O)N[C@H]1C[C@H]2C(=O)N[C@H](Cc3ccc4ccccc4c3)C(=O)N[C@@H](CCCNC(=N)N)C(=O)N[C@@H](Cc3c[nH]c4ccccc34)C(=O)NCC(=O)N[C@H](C(N)=O)CCCCNC(=O)C[C@H](NC(=O)[C@H](CCCC)NC(C)=O)C(=O)N2C1 | – |
| 7.12 | 86.2 | CCCC[C@H](NC(C)=O)C(=O)N[C@H]1CC(=O)NCCCC[C@@H](C(N)=O)NC(=O)[C@H](CCCCNC(=N)NCCC)NC(=O)[C@H](Cc2c[nH]c3ccccc23)NC(=O)[C@H](CCCNC(=N)N)NC(=O)[C@@H](Cc2ccc3ccccc3c2)NC(=O)[C@@H]2CCCN2C1=O | – |
| 10.10 | 76.4 | CCCC[C@H](NC(C)=O)C(=O)N[C@H]1CC(=O)NCCCC[C@@H](C(N)=O)NC(=O)CNC(=O)[C@H](Cc2c[nH]c3ccccc23)NC(=O)[C@H](CCCNC(=N)N)NC(=O)[C@@H](Cc2ccc3ccccc3c2)NC(=O)[C@@H]2C[C@@H](NC(=O)CCNC(=N)N)CN2C1=O | – |
| 7.81 | 85.3 | CCCC[C@H](NC(C)=O)C(=O)N[C@H]1CC(=O)NCCCC[C@@H](C(N)=O)NC(=O)[C@H](CCCCNC(=N)NCCN)NC(=O)[C@H](Cc2c[nH]c3ccccc23)NC(=O)[C@H](CCCNC(=N)N)NC(=O)[C@@H](Cc2ccc3ccccc3c2)NC(=O)[C@@H]2CCCN2C1=O | – |
